row,Compound,melting point [°C]
1,COc1cc(OC)c(/C=C/S(=O)(=O)Cc2ccc(OC)c(NC(C)C(=O)O)c2)c(OC)c1 (stereo unspecified),176 to 180
2,Nn1c(-c2cncc(Cl)c2)cc2ccccc21,154 to 156
3,COc1ccc(N2CCOCC2)c2sc(-c3nc(-c4ccccc4)c[nH]3)nc12,226 to 233
4,CCCCc1nc2c(C)cccc2n1Cc1ccc([N+](=O)[O-])cc1,115 to 116
5,COC(=O)c1ccc(OCCN)cc1,53 to 55.5
6,CCCc1c(OCCC2Cc3cc(C(=O)CCC(=O)O)ccc3O2)ccc(C(C)=O)c1O (stereo unspecified),156 to 158
7,N#CC(=Cc1cccnc1)c1cc(Cl)cc(Cl)c1,139 to 141
8,Nc1c(C(F)(F)F)cc(Cl)c2[nH]c(=O)c(=O)[nH]c12,> 360
9,Nc1nc2cc(S(=O)(=O)c3ccccc3)ccc2s1,278 to 280
10,CC(C)[C@H](NC(=O)CS)C(=O)N1CCC[C@H]1C(=O)O,162 to 165
11,CNC1Oc2cc(Cl)cc(-c3ccccc3Cl)c2O1 (stereo unspecified),> 250
12,O=c1[nH]c(-c2ccccc2)c(-c2ccccc2)o1,158 to 159
13,COc1ccccc1C1=CC(N2CCN(Cc3ccc(C)cc3)CC2)=NC12C=CC(=O)C=C2,147
14,COc1ccc(C2=NN(c3cccc(C(=O)O)c3)C(=O)[C@H]3CC=CC[C@@H]23)cc1OC (relative stereo),185 to 186
15,CC1CC(C)(C)C(CNc2ccnc3cc(Cl)ccc23)C1N (stereo unspecified),> 250
16,CCn1c(-c2cccnc2)nc(-c2ccncc2)c1-c1ccc(Cl)cc1,248 to 250
17,CCCc1nc2ccc(NS(C)(=O)=O)cc2n1Cc1ccccc1Cl,191 to 193
18,C=C(C)C(=O)O[C@H]1C[C@@H](C(=O)OC)[C@]2(C)CC[C@H]3C(=O)O[C@H](c4ccoc4)C[C@]3(C)[C@H]2C1=O,196 to 199
19,Cc1cc2c(C(=O)O)ccc(C(=O)O)c2cc1C,268 to 280
20,O=C(NCCCCOc1ccc(-n2ccnc2)cc1)Nc1ccc(Br)cc1,157 to 159
21,COC(=O)[C@@H]1C[C@H](OC(=O)c2ccccc2)CN1C(=O)OC(C)(C)C,89 to 90
22,COc1ccc(N2C(=O)[C@H](NC(=O)OC(C)(C)C)[C@@H]2CON2C(=O)c3ccccc3C2=O)cc1 (relative stereo),188 to 189
23,N=C(N)NCCCCC(=O)Nc1ccc(OCc2ccccc2)c(C(=O)NCCC(=O)O)c1,242 to 245
24,OCC1OC(n2cnc3c(NC4CC=CCC4c4cccs4)ncnc32)C(O)C1O (stereo unspecified),105 to 110
25,COC1=C(OC)C(=O)C(CCC(C)CCC(=O)O)=C(C)C1=O (stereo unspecified),58 to 61
26,CCOC(=O)c1c2ccc(Cl)cc2c(-c2ccccc2)n1CCCOS(C)(=O)=O,91 to 92

row,Compound,melting point [°C]
1,Cc1cn(COCOC(=O)c2ccccc2)c(=O)[nH]c1=O,141 to 143
2,CC(=O)c1ccc(COC(=O)N2CCN(CC3(C)Cn4cc([N+](=O)[O-])nc4O3)CC2)cc1 (stereo unspecified),101 to 102
3,CN1CCN(c2cc3c(c(N)c2F)c(=O)c(C(=O)O)cn3C2CC2)CC1,216 to 218
4,Nc1ccc(S(=O)(=O)Nc2cc(Cl)nc(C(F)(F)F)c2)cc1,179 to 181
5,Cc1cc(OCc2c(-c3c(Cl)cccc3Cl)noc2C(C)C)cnc1NC(=O)c1ccc(C(=O)O)cc1,218
6,COC(=O)c1ccc(Cn2nc(OCc3ccccc3)c3ccc(NC(=O)CC4CCCC4)cc32)c(OC)c1,139 to 140
7,COCCNCc1ccccc1Oc1ccc(-c2cn(C3CCOC3)c3ncnc(N)c23)cc1 (stereo unspecified),66 to 68
8,C=C(CC)C(=O)c1ccc(OC(C)C(=O)O)c(Cl)c1Cl (stereo unspecified),115 to 119
9,CC(=O)n1ccc2c(I)ncnc21,123 to 124
10,CN1CC(=O)Nc2ccc(-c3cccc([N+](=O)[O-])c3)cc21,237 to 243
11,Cc1nc(-n2cnn(CC3CC3)c2=O)sc1C(=O)NCc1ccccn1,160 to 161
12,OC1Cc2ccc3ccccc3c21 (stereo unspecified),96 to 100
13,O=C1c2cccc(NCc3ccccc3)c2C(=O)c2cccc(NCc3ccccc3)c21,218 to 220
14,Nc1ccc(CNc2n[nH]c3ncnc(Nc4cccc(Cl)c4)c23)cc1,170 to 171
15,O=[N+]([O-])c1cccc(-c2csc(Nc3ccccc3C(F)(F)F)n2)c1,182
16,CCC(=O)N(CC)c1cccc(-c2ccnc3c(C#N)cnn23)c1,161 to 162
17,C=CS(=O)(=O)CCCS(=O)(=O)C=C,60 to 63
18,CC(C)(C)OC(=O)N[C@H](CNc1ccccc1N)C(=O)O,158 to 160
19,CC(C)[C@H](NC(=O)OCc1csc(N2CCOCC2)n1)C(=O)N[C@@H](Cc1ccccc1)[C@@H](O)C[C@H](Cc1ccccc1)NC(=O)OCc1cncs1,146 to 148
20,CCOC(=O)c1cccc2c1c1c(C)ccc(C)c1n2S(=O)(=O)c1ccc(C)cc1,149
21,O=c1ccc2cccc(-c3cccc4ccccc34)c2[nH]1,198 to 199
22,CCOC(=O)N1C(=S)NC(C)=C(C(=O)OC)C1c1cccc(Cl)c1Cl (stereo unspecified),190 to 191
23,Cn1cc(C(=O)Nc2ccccc2-c2ccc(F)c(Cl)c2)c(CF)n1,133 to 134
24,Cc1cc2c(C(=O)C3=C(O)C4CCC(C4)C3=O)ccc(S(C)=O)c2o1 (stereo unspecified),243 to 244
25,COc1ccc(CN2C(=O)CN(Cc3ccc4c(OC)ccnc4c3)S2(=O)=O)c(OC)c1,128 to 132
26,CCOC(=O)NC(=S)NC(C)C,52.5 to 54

row,Compound,melting point [°C]
1,Cc1ccc(N2CCN(Cc3ccc4ccc(=O)oc4c3)CC2)cc1,154 to 155
2,Cc1c(NC(=O)c2cc3c(s2)CCCC3)cccc1-c1cc(N)c(=O)n(C)c1,210 to 211
3,CCc1cccc(CNC(=O)c2nc3scc(COCc4ccc(C(=O)O)cc4)c3c(=O)[nH]2)c1,240 to 242
4,CC(=O)CCOc1c(-c2ccc(S(C)(=O)=O)cc2)cnn(-c2ccc(F)cc2)c1=O,133 to 136
5,NC(=O)c1nnsc1Nc1ccccc1,195 to 197
6,O=C1c2ccccc2C(=O)N1CCc1ncc(C(F)(F)F)cc1Cl,147 to 148
7,O=C(O)CC(CC(=O)O)c1cccc2oc3c(c12)CCCC3,176 to 181
8,O=C(CCc1nc(-c2ccccn2)no1)NC1CCN(Cc2ccc(Cl)c(F)c2)CC1,132
9,CN(C)S(=O)(=O)c1ccc(Br)cc1OC(F)(F)F,55 to 58
10,CCOC(=O)c1nc2sc([N+](=O)[O-])c(C)c2c(=O)[nH]1,229 to 230
11,COC(=O)c1ccccc1N(C)C(=O)c1ccc(OC)nc1,68 to 70
12,CC(C)Cc1n[nH]c2c1c(=O)n(-c1ccccc1)c1ncccc21,217 to 220
13,COc1ccc2oc(C(N)=O)c(OCc3ccccc3)c2c1,70 to 72
14,CCOC(=O)c1cc(C)nn1C,150 to 154
15,COCCc1cc(O)ccc1N,82
16,O=[N+]([O-])C1([N+](=O)[O-])COC1,70 to 71
17,COC(=O)CC(=O)c1ccc2c(c1)CCC(=O)N2C,175 to 176
18,CC(CNc1cccc(-c2ccnc3c(C(=O)c4cccs4)cnn23)c1)c1ccccc1 (stereo unspecified),108 to 110
19,CCOC(=O)C(=O)Nc1c([N+](=O)[O-])ccc2ncccc12,181
20,CC(=NOCCO)c1ccc(-c2ccc(F)cc2)cc1,133 to 134
21,O=C(OCC1OC(n2cnc3c(NCC(c4ccccc4)c4ccccc4)ncnc32)C(OC(=O)c2ccccc2)C1OC(=O)c1ccccc1)c1ccccc1 (stereo unspecified),60 to 75
22,O=C(O)Cc1ccc2c(c1)Cc1ccccc1-2,184 to 186
23,CN(C)c1ccc(C(=O)Cc2cccc(Cl)c2)cc1,126 to 128
24,Clc1ccc(-c2ccc(Br)cc2)cc1,81 to 82
25,OCC1CCc2cc3ccccc3n2CC1 (stereo unspecified),90 to 91
26,CC1(C)Oc2ccc(C#N)cc2[C@@H](NC(=O)C2=C(c3ccccc3)CCC2)[C@@H]1O,156 to 158

row,Compound,melting point [°C]
1,CNCCc1cc2c(cc1CC(=O)c1ccc(OC)c(OC)c1C(=O)O)OCO2,176 to 179
2,O=C(O)COCCc1ccc(F)cc1,82 to 85
3,COc1cc2nc(-c3n[nH]cc3NC(=O)N3CCCCC3)[nH]c2cc1Cl,> 310
4,Cn1nc(-c2ccc3c(c2)CCN(C2CCC2)CC3)ccc1=O,287 to 288
5,NC(=O)c1ccc(-c2ccc(O)cc2)cc1Cl,215 to 216
6,N#Cc1ccccc1F,98 to 100
7,c1ccc(-c2nc(-c3ccc4cc(OCc5nnn[nH]5)ccc4c3)cs2)cc1,226 to 228
8,CCn1c(=O)n(-c2ccc(Oc3nc4cccnc4n3C)cc2)c2nccc(C(F)(F)F)c21,244 to 246
9,Cc1cc(Cl)ccc1OCC(=O)N1Cc2ccc(C(=O)c3ccc(C(C)(C)C)cc3)n2Cc2ccccc21,168
10,C=Cn1ccnc1C=O,48 to 51
11,Nc1nc(OC(F)(F)F)cc(C(F)(F)F)n1,47 to 49
12,ON=C(Cc1ccccc1)c1ccc(Cl)c(Cl)c1,81 to 82
13,O=C1C(c2c[nH]c3ccccc23)C(c2c[nH]c3ccccc23)C(=O)N1Cc1ccccc1 (stereo unspecified),112 to 115
14,CCCCCCCCCCCCc1ccc(COc2cc(C(=O)O)nc3ccc(C)cc23)cc1,95 to 96
15,COC(=O)/C=C/C#Cc1cccc(S(=O)(=O)Nc2ccccc2)c1,134 to 136
16,N#Cc1cnn(-c2ccccn2)c1SCc1ccccc1,110 to 115
17,Cc1[nH]n(C2CCCC2)c2nc(-c3cccc4cccnc34)nc(=O)c1-2,242 to 244
18,OCc1ccc(OCCCCl)cc1,65
19,Cn1c(=O)cnn(-c2cc(OCC#CBr)c(Cl)cc2F)c1=O,127 to 129
20,OCCc1cnc(Nc2n[nH]c3ccc(-c4ncccc4Cl)cc23)s1,206 to 208
21,COC(=O)c1ccc2c(c1)Oc1ccc(C(=O)OC)cc1C2(C)C,145 to 147
22,NC(=O)CCc1cccc(-c2nc(=O)c3ccccc3s2)n1,236
23,O=C(O)c1cnccc1CCCOc1cccnc1Oc1cccc(Cl)c1,142 to 144
